Data reported in patent US20250270198A1, “PYRIDONE COMPOUNDS AS TRPA1 INHIBITORS” (D. E. Shaw Research, LLC, priority 2022, published 2025).

molecular target: human TRPA1 channel (Homo sapiens (Human), UniProt O75762); experiment: TRPA1 inhibitor activity, automated patch clamp (SyncroPatch); format: cell-based; settings: CHO cells inducibly expressing human TRPA1; currents elicited by carvacrol (300 μM), holding potential −60 mV; Table 4
Experimental: This assay was used to evaluate the disclosed compounds' inhibition activities against the human TRPA1 channel.
CHO cells inducibly expressing human TRPA1 were grown in DMEM containing 10% heat-inactivated FBS, 1 mM Sodium Pyruvate, 2 mM L-Glutamine, Zeocin (100 μg/ml) and Blasticidin (10 μg/ml). Expression was induced by addition of Doxycycline (1 μg/ml) 24 hours before experiments. Cells used for electrophysiology were plated in plastic culture flasks and grown at 37° C. in a 5% CO2-humidified tissue culture incubator per ChanPharm SOP. Stocks were maintained in cryogenic storage.
The cells were bathed in an extracellular solution containing 80 mM NaCl, 60 mM NMDG, 4 mM KCl, 2 mM CaCl2), 6 mM MgCl2, 5 mM Glucose. 10 mM HEPES, 3 mM HEDTA; pH adjusted to 7.4 with NaOH; 305-310 mOsm. All compounds were dissolved in DMSO at 30 mM. The internal solution contained 10 mM CsCl, 110 mM CsF, 10 mM NaCl, 10 mM EGTA, 10 mM HEPES, 4 mM MgATP, 0.25 mM NaGTP, 4 mM BAPTA; pH adjusted to 7.2 with CsOH; 285-290 mOsm. Compound stock solutions were freshly diluted with external solution to concentrations of 3 nM, 10 nM 30 nM, 100 nM, 300 nM, 1 μM, 3 μM, 10 μM, and 30 μM. The highest content of DMSO (0.1%) was present at 30 μM.
All experiments were performed at room temperature. Each cell acted as its own control. In preparation for a current recording session, intracellular solution (see above) was loaded into the intracellular compartments of the automated patch clamp platform SyncroPatch (Nanion) chip and the cell suspension was pipetted into the extracellular compartments. After establishment of a whole-cell configuration, membrane current recordings and compound application were enabled by means of the SyncroPatch. TRPA1 currents were elicited by application of carvacrol (300 μM) at a constant holding potential of −60 mV (see Table A below).
To determine IC50 values, AUC and peak values, obtained in the presence of a given compound concentration, were normalized to control values in absence of compound. Using DataControl384 (Nanion's proprietary software), IC50 values were derived by fitting the normalized data to the Hill equation.

human TRPA1 channel, sequence (O75762 whole entry): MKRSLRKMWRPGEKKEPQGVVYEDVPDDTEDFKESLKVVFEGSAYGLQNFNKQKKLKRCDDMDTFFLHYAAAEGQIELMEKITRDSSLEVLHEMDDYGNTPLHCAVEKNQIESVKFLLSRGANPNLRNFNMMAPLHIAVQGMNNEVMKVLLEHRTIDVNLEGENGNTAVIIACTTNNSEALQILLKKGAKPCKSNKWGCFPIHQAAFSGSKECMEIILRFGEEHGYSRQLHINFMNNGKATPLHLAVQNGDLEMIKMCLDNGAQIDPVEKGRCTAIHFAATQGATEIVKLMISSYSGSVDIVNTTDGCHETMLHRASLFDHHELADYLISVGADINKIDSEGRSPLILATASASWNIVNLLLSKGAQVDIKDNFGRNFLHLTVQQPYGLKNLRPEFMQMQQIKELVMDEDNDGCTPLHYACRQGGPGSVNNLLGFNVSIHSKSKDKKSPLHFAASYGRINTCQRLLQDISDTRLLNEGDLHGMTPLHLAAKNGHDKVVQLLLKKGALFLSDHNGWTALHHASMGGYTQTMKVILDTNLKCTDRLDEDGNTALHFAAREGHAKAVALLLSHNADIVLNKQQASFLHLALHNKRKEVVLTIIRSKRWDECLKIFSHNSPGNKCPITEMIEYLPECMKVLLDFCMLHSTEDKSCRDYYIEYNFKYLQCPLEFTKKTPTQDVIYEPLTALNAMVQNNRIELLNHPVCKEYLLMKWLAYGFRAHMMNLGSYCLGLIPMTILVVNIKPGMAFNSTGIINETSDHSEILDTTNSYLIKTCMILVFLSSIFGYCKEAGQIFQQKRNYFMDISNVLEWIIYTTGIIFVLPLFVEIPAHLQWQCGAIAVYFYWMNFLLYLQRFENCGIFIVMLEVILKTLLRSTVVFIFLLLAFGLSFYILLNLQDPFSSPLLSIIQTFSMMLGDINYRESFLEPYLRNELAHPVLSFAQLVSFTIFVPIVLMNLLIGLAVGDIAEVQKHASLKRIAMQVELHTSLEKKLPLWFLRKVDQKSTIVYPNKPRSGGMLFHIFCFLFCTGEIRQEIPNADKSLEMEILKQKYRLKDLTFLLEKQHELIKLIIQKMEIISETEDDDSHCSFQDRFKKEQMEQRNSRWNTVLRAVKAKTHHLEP

| SMILES | IC50 |
| --- | --- |
| Cc1cccn(Cc2nc(CCc3ccc(Cl)cc3)no2)c1=O [Compound 1, 1-((3-(4-chlorophenethyl)-1,2,4-oxadiazol-5-yl)methyl)-3-methylpyridin-2(1H)-one] | < 10000 nM |
| Cc1cc(C#N)cn(Cc2nc(CCc3ccc(Cl)cc3)no2)c1=O [Compound 2, 1-((3-(4-chlorophenethyl)-1,2,4-oxadiazol-5-yl)methyl)-5-methyl-6-oxo-1,6-dihydropyridine-3-carbonitrile] | < 1000 nM |
| N#Cc1cc(Br)c(=O)n(Cc2nc(CCc3ccc(Cl)cc3)no2)c1 [Compound 3, 5-bromo-1-((3-(4-chlorophenethyl)-1,2,4-oxadiazol-5-yl)methyl)-6-oxo-1,6-dihydropyridine-3-carbonitrile] | < 1000 nM |
| Cc1cc(Cl)cn(Cc2nc(CCc3ccc(Cl)cc3)no2)c1=O [Compound 5, 5-chloro-1-((3-(4-chlorophenethyl)-1,2,4-oxadiazol-5-yl)methyl)-3-methylpyridin-2(1H)-one] | < 3000 nM |
| O=c1c(C(F)(F)F)cccn1Cc1nc(CCc2ccc(Cl)cc2)no1 [Compound 7, 1-((3-(4-chlorophenethyl)-1,2,4-oxadiazol-5-yl)methyl)-3-(trifluoromethyl)pyridin-2(1H)-one] | < 10000 nM |
| CNC(=O)c1cc(C)c(=O)n(Cc2nc(CCc3ccc(Cl)cc3)no2)c1 [Compound 9, 1-((3-(4-chlorophenethyl)-1,2,4-oxadiazol-5-yl)methyl)-N,5-dimethyl-6-oxo-1,6-dihydropyridine-3-carboxamide] | < 1000 nM |
| COC(=O)c1cc(C)c(=O)n(Cc2nc(CCc3ccc(Cl)cc3)no2)c1 [Compound 10, methyl 1-((3-(4-chlorophenethyl)-1,2,4-oxadiazol-5-yl)methyl)-5-methyl-6-oxo-1,6-dihydropyridine-3-carboxylate] | < 3000 nM |
| Cc1c(CO)ccn(Cc2nc(CCc3ccc(Cl)cc3)no2)c1=O [Compound 11, 1-((3-(4-chlorophenethyl)-1,2,4-oxadiazol-5-yl)methyl)-4-(hydroxymethyl)-3-methylpyridin-2(1H)-one] | < 3000 nM |
| Cc1c(Br)ccn(Cc2nc(CCc3ccc(Cl)cc3)no2)c1=O [Compound 12, 4-bromo-1-((3-(4-chlorophenethyl)-1,2,4-oxadiazol-5-yl)methyl)-3-methylpyridin-2(1H)-one] | < 3000 nM |
| C=Cc1ccn(Cc2nc(CCc3ccc(Cl)cc3)no2)c(=O)c1C [Compound 13, 1-((3-(4-chlorophenethyl)-1,2,4-oxadiazol-5-yl)methyl)-3-methyl-4-vinylpyridin-2(1H)-one] | < 3000 nM |
| Cc1c(-c2cn[nH]c2)ccn(Cc2nc(CCc3ccc(Cl)cc3)no2)c1=O [Compound 15, 1-((3-(4-chlorophenethyl)-1,2,4-oxadiazol-5-yl)methyl)-3-methyl-4-(1H-pyrazol-4-yl)pyridin-2(1H)-one] | < 3000 nM |
| Cc1cc(CO)cn(Cc2nc(CCc3ccc(Cl)cc3)no2)c1=O [Compound 16, 1-((3-(4-chlorophenethyl)-1,2,4-oxadiazol-5-yl)methyl)-5-(hydroxymethyl)-3-methylpyridin-2(1H)-one] | < 3000 nM |
| Cc1cc(CC#N)cn(Cc2nc(CCc3ccc(Cl)cc3)no2)c1=O [Compound 19, 2-(1-((3-(4-chlorophenethyl)-1,2,4-oxadiazol-5-yl)methyl)-5-methyl-6-oxo-1,6-dihydropyridin-3-yl)acetonitrile] | < 1000 nM |
| Cc1cc(CC(N)=O)cn(Cc2nc(CCc3ccc(Cl)cc3)no2)c1=O [Compound 20, 2-(1-((3-(4-chlorophenethyl)-1,2,4-oxadiazol-5-yl)methyl)-5-methyl-6-oxo-1,6-dihydropyridin-3-yl)acetamide] | < 10000 nM |
| Cc1nc(C)c(=O)n(Cc2nc(CCc3ccc(Cl)cc3)no2)c1C [Compound 23, 1-((3-(4-chlorophenethyl)-1,2,4-oxadiazol-5-yl)methyl)-3,5,6-trimethylpyrazin-2(1H)-one] | < 1000 nM |
| Cc1nccn(Cc2nc(CCc3ccc(Cl)cc3)no2)c1=O [Compound 25, 1-((3-(4-chlorophenethyl)-1,2,4-oxadiazol-5-yl)methyl)-3-methylpyrazin-2(1H)-one] | < 3000 nM |

Results, then the compound that gave them:

| IC50 | SMILES |
| --- | --- |
| < 300 nM | O=c1c(Cl)nc(Br)cn1Cc1nc(C[C@H](O)c2ccc(Cl)cc2)no1 [Compound 21, (S)-5-bromo-3-chloro-1-((3-(2-(4-chlorophenyl)-2-hydroxyethyl)-1,2,4-oxadiazol-5-yl)methyl)pyrazin-2(1H)-one] |
| < 1000 nM | Cc1nc(Cl)cn(Cc2nc(CCc3ccc(Cl)cc3)no2)c1=O [Compound 24, 5-chloro-1-((3-(4-chlorophenethyl)-1,2,4-oxadiazol-5-yl)methyl)-3-methylpyrazin-2(1H)-one] |
| < 1000 nM | Nc1c(Cl)c(F)n(Cc2nc(C[C@H](O)c3ccc(Cl)cc3)no2)c(=O)c1Cl [Compound 28, (S)-4-amino-3,5-dichloro-1-((3-(2-(4-chlorophenyl)-2-hydroxyethyl)-1,2,4-oxadiazol-5-yl)methyl)-6-fluoropyridin-2(1H)-one] |
| < 1000 nM | Cc1ncc(C)n(Cc2nc(C[C@H](O)c3ccc(Cl)cc3)no2)c1=O [Compound 31, (S)-1-((3-(2-(4-chlorophenyl)-2-hydroxyethyl)-1,2,4-oxadiazol-5-yl)methyl)-3,6-dimethylpyrazin-2(1H)-one] |
| < 1000 nM | Cc1cn(Cc2nc(C[C@H](O)c3ccc(Cl)cc3)no2)c(=O)c(C)n1 [Compound 32, (S)-1-((3-(2-(4-chlorophenyl)-2-hydroxyethyl)-1,2,4-oxadiazol-5-yl)methyl)-3,5-dimethylpyrazin-2(1H)-one] |
| < 1000 nM | Cc1c(N)ncn(Cc2nc(C[C@H](O)c3ccc(Cl)cc3)no2)c1=O [Compound 33, (S)-6-amino-3-((3-(2-(4-chlorophenyl)-2-hydroxyethyl)-1,2,4-oxadiazol-5-yl)methyl)-5-methylpyrimidin-4(3H)-one] |
| < 1000 nM | Cc1ccc(Cl)c(=O)n1Cc1nc(C[C@H](O)c2ccc(Cl)cc2)no1 [Compound 34, (S)-3-chloro-1-((3-(2-(4-chlorophenyl)-2-hydroxyethyl)-1,2,4-oxadiazol-5-yl)methyl)-6-methylpyridin-2(1H)-one] |

same assay, conditions: CHO cells inducibly expressing human TRPA1; currents elicited by carvacrol (300 μM), holding potential −60 mV; Table 5

| IC50 | SMILES |
| --- | --- |
| < 1000 nM | NC(=O)c1ncn(Cc2nc(C[C@H](O)c3ccc(Cl)cc3)no2)c(=O)c1Cl [Compound 62, (S)-5-chloro-1-((3-(2-(4-chlorophenyl)-2-hydroxyethyl)-1,2,4-oxadiazol-5-yl)methyl)-6-oxo-1,6-dihydropyrimidine-4-carboxamide] |
| < 100 nM | O=c1c(Cl)c(Cl)ncn1Cc1nc(C[C@H](O)c2ccc(Cl)cc2)no1 [Compound 64, (S)-5,6-dichloro-3-((3-(2-(4-chlorophenyl)-2-hydroxyethyl)-1,2,4-oxadiazol-5-yl)methyl)pyrimidin-4(3H)-one] |
| < 300 nM | Cc1ncn(Cc2nc(C[C@H](O)c3ccc(Cl)cc3)no2)c(=O)c1C [Compound 68, (S)-3-((3-(2-(4-chlorophenyl)-2-hydroxyethyl)-1,2,4-oxadiazol-5-yl)methyl)-5,6-dimethylpyrimidin-4(3H)-one] |
| < 1000 nM | Cc1ncc(Cl)c(=O)n1Cc1nc(C[C@H](O)c2ccc(Cl)cc2)no1 [Compound 69, (S)-5-chloro-3-((3-(2-(4-chlorophenyl)-2-hydroxyethyl)-1,2,4-oxadiazol-5-yl)methyl)-2-methylpyrimidin-4(3H)-one] |
| < 300 nM | Nc1ncn(Cc2nc(C[C@H](O)c3ccc(Cl)cc3)no2)c(=O)c1Cl [Compound 72, (S)-6-amino-5-chloro-3-((3-(2-(4-chlorophenyl)-2-hydroxyethyl)-1,2,4-oxadiazol-5-yl)methyl)pyrimidin-4(3H)-one] |
| < 1000 nM | O=c1c(Cl)c(-c2cn[nH]c2)ccn1Cc1nc(C[C@H](O)c2ccc(Cl)cc2)no1 [Compound 74, (S)-3-chloro-1-((3-(2-(4-chlorophenyl)-2-hydroxyethyl)-1,2,4-oxadiazol-5-yl)methyl)-4-(1H-pyrazol-4-yl)pyridin-2(1H)-one] |
